According to patent US20220324835A1 (Nurix Therapeutics, Inc., priority 2018, published 2022):

What was measured:
[1] = test system: T-cell; test: IL-2 secretion from T-cells stimulated with anti-CD3 antibody alone (Biological Example 2); assay type: cell-based, human; settings: T-cell, fold change over baseline, primary human total T-cells, read-out: IL-2 secretion Anti-CD3 stimulation; for fold induction at 1 µM: 1 μM Cbl-b inhibitor; for fold induction at 8 µM: 8 μM Cbl-b inhibitor
[2] = test system: T-cell; test: IL-2 secretion from T-cells co-stimulated with anti-CD3 and anti-CD28 antibody (Biological Example 2); assay type: cell-based, human; settings: Homo sapiens, T-cell, fold change over baseline, primary human total T-cells, read-out: IL-2 secretion Anti-CD3/Anti-CD28 stimulation; for fold induction at 0.3 µM: 0.3 μM Cbl-b inhibitor; for fold induction at 1 µM: 1 μM Cbl-b inhibitor; for fold induction at 4 µM: 4 μM Cbl-b inhibitor
In short: (§1)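 Values are fold-change over baseline: readings (IL-2 release, CD25 staining) from inhibitor-treated T-cells divided against untreated cells […]. No detailed procedure stated.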

[3] = molecular target: T1, Cbl-b (Homo sapiens, UniProt Q13191); test: Cbl-b inhibition assay (Cbl-b activity assay, FRET, Biological Example 1; 100 mM NaCl, 60 nM Src kinase); assay type: biochemical; settings: upper bound stated in text lists; read-out: IC50 values in the Cbl-b inhibition assay of Biological Example 1
T1 sequence (Q13191 36-427): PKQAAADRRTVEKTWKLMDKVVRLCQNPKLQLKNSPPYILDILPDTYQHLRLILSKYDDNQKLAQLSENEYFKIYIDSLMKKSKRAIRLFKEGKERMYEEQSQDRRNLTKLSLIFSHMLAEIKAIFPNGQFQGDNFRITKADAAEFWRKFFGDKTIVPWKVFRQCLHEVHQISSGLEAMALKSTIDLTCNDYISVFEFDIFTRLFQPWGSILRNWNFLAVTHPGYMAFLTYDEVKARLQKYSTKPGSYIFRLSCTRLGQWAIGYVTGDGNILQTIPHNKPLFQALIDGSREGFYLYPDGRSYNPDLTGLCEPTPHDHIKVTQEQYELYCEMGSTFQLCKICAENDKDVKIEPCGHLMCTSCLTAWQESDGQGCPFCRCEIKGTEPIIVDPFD
In short: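 FRET read-out: loss of signal marks inhibition. Mix = biotin-Avi-Cbl-b (N-term), Src kinase, UbcH5B-Ub(Bodipy-FL, irreversible conjugate), streptavidin-Tb, assay buffer.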

[4] = test system: T-cell; test: CD25 cell surface staining on T-cells co-stimulated with anti-CD3 and anti-CD28 antibody (Biological Example 2); assay type: cell-based, human; settings: Homo sapiens, T-cell, fold change over baseline, primary human total T-cells, read-out: CD25 staining Anti-CD3/Anti-CD28 stimulation; for fold induction at 0.3 µM: 0.3 μM Cbl-b inhibitor; for fold induction at 1 µM: 1 μM Cbl-b inhibitor; for fold induction at 4 µM: 4 μM Cbl-b inhibitor
In short: as §1

[5] = molecular target: T1, Cbl-b; test: Cbl-b activity assay (Cbl-b inhibition assay), TR-FRET of Cbl-b interaction with UbcH5B-Ub; assay type: biochemical; settings: assay buffer with 100 mM NaCl, 60 nM Src kinase; read-out: Cbl-b activity IC50
In short: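 Compound-treated Cbl-b was incubated 1.5 h with Src kinase (60 nM final; 30 nM for asterisked values, which also used 50 mM instead of 100 mM NaCl), 1 mM ATP and 5 mM MgCl2. Binding to fluorescent Ub-loaded UbcH5B (C85K mutant) was then read by TR-FRET after 1 h more.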

[6] = test system: T-cell; test: CD25 cell surface staining on T-cells stimulated with anti-CD3 antibody alone (Biological Example 2); assay type: cell-based, human; settings: T-cell, fold change over baseline, primary human total T-cells, read-out: CD25 staining Anti-CD3 stimulation; for fold induction at 1 µM: 1 μM Cbl-b inhibitor; for fold induction at 8 µM: 8 μM Cbl-b inhibitor

Row | Compound | fold induction at 1 µM [1] | fold induction at 0.3 µM [2] | fold induction at 1 µM [2] | IC50 [3] | fold induction at 0.3 µM [4] | fold induction at 1 µM [4] | IC50 [5] | fold induction at 1 µM [6] | fold induction at 8 µM [1] | fold induction at 4 µM [2] | fold induction at 4 µM [4] | fold induction at 8 µM [6]
1 | Cn1cnnc1CC1(c2cccc(NC(=O)c3[nH]nc4c3OCCC4)c2)COC1 [Compound 343, N-(3-(3-((4-Methyl-4H-1,2,4-triazol-3-yl)methyl)oxetan-3-yl)phenyl)-2,5,6,7-tetrahydropyrano[3,2-c]pyrazole-3-carboxamide] | 0.051 to 0.1 | 1.01 to 2.5 | 1.01 to 2.5 | ≤ 100 nM | 1.01 to 1.3 | 1.01 to 1.3 | < 100 nM | 0.601 to 0.8 | – | – | – | –
2 | Cn1cnnc1C(F)(F)[C@](C)(F)c1cccc(NC(=O)c2nc3c(C(F)(F)F)cccc3[nH]2)c1 [Compound 345, (R)-N-(3-(1,1,2-trifluoro-1-(4-methyl-4H-1,2,4-triazol-3-yl)propan-2-yl)phenyl)-4-(trifluoromethyl)-1H-benzo[d]imidazole-2-carboxamide] | 0.051 to 0.1 | 1.01 to 2.5 | 1.01 to 2.5 | ≤ 300 nM | 1.01 to 1.3 | 1.01 to 1.3 | 100 to 300 nM | 0.601 to 0.8 | 0.151 to 0.2 | 2.51 to 5 | 1.01 to 1.3 | 0.601 to 0.8
3 | Cc1cc(C(=O)Nc2cccc(C3(C(F)(F)c4nncn4C)CC3)c2)nc(C2CC2)n1 [Compound 346, 2-cyclopropyl-N-(3-{1-[difluoro(4-methyl-4H-1,2,4-triazol-3-yl)methyl]cyclopropyl}phenyl)-6-methylpyrimidine-4-carboxamide] | 0.101 to 0.15 | 1.01 to 2.5 | 2.51 to 5 | ≤ 100 nM | 1.01 to 1.3 | 1.01 to 1.3 | < 100 nM | 0.601 to 0.8 | – | – | – | –
4 | Cn1cnnc1CC1(c2cccc(NC(=O)c3cc(C4CC4)nc(C4CC4)n3)c2)COC1 [Compound 347, 2,6-dicyclopropyl-N-(3-(3-((4-methyl-4H-1,2,4-triazol-3-yl)methyl)oxetan-3-yl)phenyl)pyrimidine-4-carboxamide] | 0.151 to 0.2 | 2.51 to 5 | > 7.5 | ≤ 100 nM | 1.01 to 1.3 | 1.01 to 1.3 | < 100 nM | > 1 | > 0.201 | > 7.5 | 1.31 to 1.5 | > 1
5 | CN1CCN(c2cc(C(=O)Nc3cccc(C4(Cc5nncn5C)COC4)c3)nc(C3CC3)n2)CC1 [Compound 348, 2-Cyclopropyl-N-(3-(3-((4-methyl-4H-1,2,4-triazol-3-yl)methyl)oxetan-3-yl)phenyl)-6-(4-methylpiperazin-1-yl)pyrimidine-4-carboxamide] | > 0.201 | 2.51 to 5 | > 7.5 | ≤ 100 nM | 1.31 to 1.5 | 1.31 to 1.5 | < 100 nM | 0.801 to 1 | – | – | – | –
6 | C[C@H](Cc1nncn1C)c1cc(NC2CCC2)nc(N2Cc3c(cccc3C(F)(F)F)C2=O)c1 [Compound 351, 2-[6-(cyclobutylamino)-4-[(2R)-1-(4-methyl-4H-1,2,4-triazol-3-yl)propan-2-yl]pyridin-2-yl]-4-(trifluoromethyl)-2,3-dihydro-1H-isoindol-1-one] | < 0.05 | 1.01 to 2.5 | 1.01 to 2.5 | ≤ 300 nM | 1.01 to 1.3 | 1.01 to 1.3 | 100 to 300 nM | 0.601 to 0.8 | 0.151 to 0.2 | 1.01 to 2.5 | 1.01 to 1.3 | > 1
